≈ marks a conversion by molar mass, not a printed value.

In the first experiment the test system is Pseudomonas aeruginosa. Briefly: microbe, parasite or virus in culture. The following applies: ATCC 27853, 18 h, ASSAY_TEST Inhibition of Bacterial Growth, detection method Absorption (OD600), MEDIA CAMHB, plate type 384well, NBS, CORNING #3640.
Description: Antibacterial activity against Pseudomonas aeruginosa ATCC 27853 (CO-ADD:GN_042); MIC in CAMBH media using NBS plates, by OD(600)
`COc1cccc(-c2ncc(CN)s2)c1` had an MIC greater than 300 µM.

Compound `NS(=O)(=O)NCCCc1ccc(Br)cc1F` registered an MIC greater than 300 µM.

For the compound `NCC(=O)N(Cc1cccs1)Cc1cccs1`, the MIC is greater than 300 µM.

With `COc1ccc(NC(=O)c2ccc(S(N)(=O)=O)o2)cc1`, the MIC is greater than 300 µM.

In the case of `COc1ccc2c(c1)CCCC(=O)N2`, the MIC is greater than 300 µM.

In turn, `CCc1nnc(NC(=O)c2cc(OC)ccn2)s1` had an MIC greater than 300 µM.

The compound `CN(Cc1ccc(Cl)cc1)C(=O)C1CCNC1` (stereo not drawn) displayed an MIC greater than 300 µM.

Compound `Nc1nc(-c2ccc3c(c2)CCCC(=O)N3)cs1` showed an MIC greater than 300 µM.

On to `CC(Nc1ccc(C#N)cn1)c1ccc2c(c1)OCO2` (stereo not drawn), for which the MIC was greater than 300 µM.

The compound `NCCC(=O)N1CCCC(CCc2ccc(F)cc2)C1` (stereo not drawn) returned an MIC greater than 300 µM.

`CCCOc1ccccc1C(=O)NC1CCNC1` (stereo not drawn) registered an MIC greater than 300 µM.

Take `CCCOc1ccc(NS(=O)(=O)N(C)C)cc1Cl`: the MIC was greater than 300 µM.

Consider `O=C(Nc1ccnc(CO)c1)c1ccc(F)cc1I`, for which the MIC is greater than 300 µM.

In turn, `Cc1nnc(SCC(=O)NCCCc2csc(N)n2)s1` gave an MIC greater than 300 µM.

With `CCCc1cc(C(=O)NCCc2nc(C)c[nH]2)[nH]n1`, the MIC is greater than 300 µM.

As for `NCC1CCOc2ccccc21` (stereo not drawn), the MIC was greater than 300 µM.

As to `COCC(C)NCc1ccccc1CN1CCCC1=O` (stereo not drawn), the MIC is greater than 300 µM.

`CC(C)NC(=O)NCC1(N2CCOCC2)CCSC1` (stereo not drawn) displayed an MIC greater than 300 µM.

Compound `NC(=O)C1CCN(c2ccnc3cc(Br)ccc23)C1` (stereo not drawn) displayed an MIC greater than 300 µM.

With `Cc1cc(C(=O)NC2CCC(=O)NC2)cc(Cl)c1Br` (stereo not drawn), the MIC was greater than 300 µM.

`CCCn1cnnc1CNC` registered an MIC greater than 300 µM.

In the case of `CN(CCOc1ccc(Cl)cc1)C(=O)C(C)(C)CN`, the MIC was greater than 300 µM.

Compound `NCC(=O)N1CCCC(CCc2ccc(F)cc2F)C1` (stereo not drawn) came in with an MIC greater than 300 µM.

With `Cc1cc(Br)cc(C(=O)NCc2nccc(N)n2)c1`, the MIC is greater than 300 µM.

`OCCCNc1ccnc2ccc(Cl)cc12` came in with an MIC greater than 300 µM.

In the case of `NC1CCN(c2ccccc2F)CC1`, the MIC is greater than 300 µM.

The compound `O=C1C=CC(=O)N1Cc1ccc(Cl)cc1` showed an MIC greater than 300 µM.

The compound `Cn1cc(CC(=O)Nc2ccc(I)cn2)cn1` yielded an MIC greater than 300 µM.

`O=C(Nc1ccncc1)c1coc(Br)c1` showed an MIC greater than 300 µM.

The compound `c1cc(CNc2ncnc3[nH]ncc23)c2c(c1)OCO2` came in with an MIC greater than 300 µM.

For `Brc1ccc2c(c1)OCCNC2`, the MIC was greater than 300 µM.

The next experiment has as its system Acinetobacter baumannii. Description: microbe, parasite or virus in culture. The following applies: ATCC 19606, 18 h, ASSAY_TEST Inhibition of Bacterial Growth, detection method Absorption (OD600), MEDIA CAMHB, plate type 384well, NBS, CORNING #3640.
Description: Antibacterial activity against Acinetobacter baumannii ATCC 19606 (CO-ADD:GN_034); MIC in CAMBH media using NBS plates, by OD600
With `COc1cccc(-c2ncc(CN)s2)c1`, the MIC was greater than 300 µM.

Regarding `NS(=O)(=O)NCCCc1ccc(Br)cc1F`, the MIC is greater than 300 µM.

Compound `NCC(=O)N(Cc1cccs1)Cc1cccs1` returned an MIC greater than 300 µM.

On to `COc1ccc(NC(=O)c2ccc(S(N)(=O)=O)o2)cc1`, for which the MIC is greater than 300 µM.

Compound `COc1ccc2c(c1)CCCC(=O)N2` showed an MIC greater than 300 µM.

Turning to `CCc1nnc(NC(=O)c2cc(OC)ccn2)s1`, the MIC was greater than 300 µM.

The compound `CN(Cc1ccc(Cl)cc1)C(=O)C1CCNC1` (stereo not drawn) had an MIC greater than 300 µM.

With `Nc1nc(-c2ccc3c(c2)CCCC(=O)N3)cs1`, the MIC was greater than 300 µM.

The compound `CC(Nc1ccc(C#N)cn1)c1ccc2c(c1)OCO2` (stereo not drawn) registered an MIC greater than 300 µM.

`NCCC(=O)N1CCCC(CCc2ccc(F)cc2)C1` (stereo not drawn) returned an MIC greater than 300 µM.

Regarding `CCCOc1ccccc1C(=O)NC1CCNC1` (stereo not drawn), the MIC is greater than 300 µM.

The compound `CCCOc1ccc(NS(=O)(=O)N(C)C)cc1Cl` came in with an MIC greater than 300 µM.

For the compound `O=C(Nc1ccnc(CO)c1)c1ccc(F)cc1I`, the MIC was greater than 300 µM.

In turn, `Cc1nnc(SCC(=O)NCCCc2csc(N)n2)s1` had an MIC greater than 300 µM.

In the case of `CCCc1cc(C(=O)NCCc2nc(C)c[nH]2)[nH]n1`, the MIC was greater than 300 µM.

The compound `NCC1CCOc2ccccc21` (stereo not drawn) came in with an MIC greater than 300 µM.

`COCC(C)NCc1ccccc1CN1CCCC1=O` (stereo not drawn) had an MIC greater than 300 µM.

On to `CC(C)NC(=O)NCC1(N2CCOCC2)CCSC1` (stereo not drawn), for which the MIC was greater than 300 µM.

Turning to `NC(=O)C1CCN(c2ccnc3cc(Br)ccc23)C1` (stereo not drawn), the MIC was greater than 300 µM.

In the case of `Cc1cc(C(=O)NC2CCC(=O)NC2)cc(Cl)c1Br` (stereo not drawn), the MIC is greater than 300 µM.

`CCCn1cnnc1CNC` came in with an MIC greater than 300 µM.

Compound `CN(CCOc1ccc(Cl)cc1)C(=O)C(C)(C)CN` registered an MIC greater than 300 µM.

Compound `NCC(=O)N1CCCC(CCc2ccc(F)cc2F)C1` (stereo not drawn) registered an MIC greater than 300 µM.

Regarding `Cc1cc(Br)cc(C(=O)NCc2nccc(N)n2)c1`, the MIC was greater than 300 µM.

As for `OCCCNc1ccnc2ccc(Cl)cc12`, the MIC was greater than 300 µM.

Take `NC1CCN(c2ccccc2F)CC1`: the MIC is greater than 300 µM.

`O=C1C=CC(=O)N1Cc1ccc(Cl)cc1` came in with an MIC greater than 300 µM.

Take `Cn1cc(CC(=O)Nc2ccc(I)cn2)cn1`: the MIC is greater than 300 µM.

Regarding `O=C(Nc1ccncc1)c1coc(Br)c1`, the MIC is greater than 300 µM.

Regarding `c1cc(CNc2ncnc3[nH]ncc23)c2c(c1)OCO2`, the MIC was greater than 300 µM.

In turn, `Brc1ccc2c(c1)OCCNC2` displayed an MIC greater than 300 µM.

In another experiment the test system is Pseudomonas aeruginosa. Briefly: Antibacterial activity against Pseudomonas aeruginosa PAO397 [PAO1 d(mexAB-oprM) d(mexCD-oprJ) d(mexEF-oprN) d(mexJKL) d(mexXY) d(opmH)] (CO-ADD:GN_211); MIC in CAMBH media using NBS plates, by OD(600). In kind it is functional. The settings on record: ASSAY_TEST Inhibition of Bacterial Growth, detection method Absorption (OD600), MEDIA CAMHB, plate type 384well, CORNING #3640, time 18 hr.
Consider `COc1cccc(-c2ncc(CN)s2)c1`, for which the MIC is greater than 300 µM.

Regarding `NS(=O)(=O)NCCCc1ccc(Br)cc1F`, the MIC was greater than 300 µM.

As to `NCC(=O)N(Cc1cccs1)Cc1cccs1`, the MIC was greater than 300 µM.

`COc1ccc(NC(=O)c2ccc(S(N)(=O)=O)o2)cc1` showed an MIC of 200 µM (≈ 59.3 µg/mL).

Compound `COc1ccc2c(c1)CCCC(=O)N2` had an MIC greater than 300 µM.

Compound `CCc1nnc(NC(=O)c2cc(OC)ccn2)s1` returned an MIC greater than 300 µM.

In the case of `CN(Cc1ccc(Cl)cc1)C(=O)C1CCNC1` (stereo not drawn), the MIC was greater than 300 µM.

`Nc1nc(-c2ccc3c(c2)CCCC(=O)N3)cs1` displayed an MIC greater than 300 µM.

Take `CC(Nc1ccc(C#N)cn1)c1ccc2c(c1)OCO2` (stereo not drawn): the MIC is greater than 300 µM.

For the compound `NCCC(=O)N1CCCC(CCc2ccc(F)cc2)C1` (stereo not drawn), the MIC was greater than 300 µM.

The compound `CCCOc1ccccc1C(=O)NC1CCNC1` (stereo not drawn) had an MIC of 25 µM (≈ 6.21 µg/mL).

For the compound `CCCOc1ccc(NS(=O)(=O)N(C)C)cc1Cl`, the MIC was greater than 300 µM.

`O=C(Nc1ccnc(CO)c1)c1ccc(F)cc1I` showed an MIC greater than 300 µM.

The compound `Cc1nnc(SCC(=O)NCCCc2csc(N)n2)s1` came in with an MIC greater than 300 µM.

`CCCc1cc(C(=O)NCCc2nc(C)c[nH]2)[nH]n1` displayed an MIC of 300 µM (≈ 78.4 µg/mL).

In turn, `NCC1CCOc2ccccc21` (stereo not drawn) returned an MIC greater than 300 µM.

`COCC(C)NCc1ccccc1CN1CCCC1=O` (stereo not drawn) displayed an MIC greater than 300 µM.

Regarding `CC(C)NC(=O)NCC1(N2CCOCC2)CCSC1` (stereo not drawn), the MIC is greater than 300 µM.

`NC(=O)C1CCN(c2ccnc3cc(Br)ccc23)C1` (stereo not drawn) had an MIC greater than 300 µM.

Compound `Cc1cc(C(=O)NC2CCC(=O)NC2)cc(Cl)c1Br` (stereo not drawn) displayed an MIC greater than 300 µM.

Turning to `CCCn1cnnc1CNC`, the MIC was greater than 300 µM.

`CN(CCOc1ccc(Cl)cc1)C(=O)C(C)(C)CN` yielded an MIC greater than 300 µM.

Regarding `NCC(=O)N1CCCC(CCc2ccc(F)cc2F)C1` (stereo not drawn), the MIC is greater than 300 µM.

`Cc1cc(Br)cc(C(=O)NCc2nccc(N)n2)c1` gave an MIC greater than 300 µM.

Compound `OCCCNc1ccnc2ccc(Cl)cc12` came in with an MIC greater than 300 µM.

Consider `NC1CCN(c2ccccc2F)CC1`, for which the MIC was greater than 300 µM.

As for `O=C1C=CC(=O)N1Cc1ccc(Cl)cc1`, the MIC is greater than 300 µM.

On to `Cn1cc(CC(=O)Nc2ccc(I)cn2)cn1`, for which the MIC is greater than 300 µM.

`O=C(Nc1ccncc1)c1coc(Br)c1` returned an MIC greater than 300 µM.

The compound `c1cc(CNc2ncnc3[nH]ncc23)c2c(c1)OCO2` registered an MIC greater than 300 µM.

Regarding `Brc1ccc2c(c1)OCCNC2`, the MIC was greater than 300 µM.

Values taken from ChEMBL document CHEMBL4513160, “CO-ADD screening of MMV (CH) - Small Polar Library”.
